Laboratory results reported in patent US12534450B2, “Methods and compositions for targeting PD-L1” (Aligos Therapeutics, Inc., priority 2021, dated 2026).
pEC50, pIC50: −log10 of the molar value.

Target: PD-1/PD-L1 PPI (Homo sapiens, UniProt Q9NZQ7)
Test: PDL1/PD1 Binding Assay
Conditions: PDL1-6×His 0.3 nM, PD1-Fc-Avi-Biotin 2.5 nM, Acceptor/Donor beads, Envision reader
Procedure: Compounds to be tested were serially diluted in DMSO, and further diluted in assay buffer (25 mM Hepes pH 7.4, 150 mM NaCl, 0.005% Tween 20, BSA 0.01%). Diluted compounds were added to the wells with final concentration of DMSO at 1%. PDL1-6×His protein was added to the wells, mixed well with compound. The plates were incubated for 30 min at room temperature. PD1-Fc-Avi-Biotin protein was added to the wells. Final concentration of PDL1 and PD1 protein is 0.3 nM and 2.5 nM, respectively. After a binding time of 30 min at room temperature, Anti-6×His Acceptor beads (final concentration 20 ug/ml) were added to the wells, and the incubation continued for 1 h. Streptavidin Donor beads (final concentration 20 ug/mL) were added at reduced light. The plates were sealed with foil and incubated in the dark for additional 1 h or overnight before reading on an Envision reader. The IC50 values were determined by fitting the curves using a four-parameter equation in Graphpad Prism 8.

PD-1/PD-L1 PPI, sequence (Q9NZQ7 19-238 limits assumed): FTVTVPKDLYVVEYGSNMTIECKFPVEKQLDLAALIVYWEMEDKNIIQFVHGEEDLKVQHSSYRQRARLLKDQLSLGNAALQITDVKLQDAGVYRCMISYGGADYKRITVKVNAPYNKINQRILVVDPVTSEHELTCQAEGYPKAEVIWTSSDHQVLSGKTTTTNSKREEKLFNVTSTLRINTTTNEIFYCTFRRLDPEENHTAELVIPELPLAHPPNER

Compound	pIC50
COc1nc(-c2cccc(-c3cccc(NC(=O)c4ccnn(C)c4=O)c3Cl)c2Cl)cc2c1[C@@H](NC[C@@H]1CCC(=O)N1)CO2 [Compound A-44]	≥ 8.00
COc1nc(-c2cccc(-c3cccc(NC(=O)c4cn(C)c(=O)n(C)c4=O)c3C)c2C)cc2c1C(N1C[C@@H](O)[C@@H]1C)CC2 (stereo partly drawn) [Compound D-19]	≥ 8.00
COc1nc(-c2cccc(-c3cccc(NC(=O)c4cn(C)c(=O)n(C)c4=O)c3C)c2Cl)cc2c1[C@@H](N(C[C@@H]1CCC(=O)N1)C(=O)OCc1oc(=O)oc1C)CC2 [Compound F-1]	≥ 8.00
COc1nc(-c2cccc(-c3cccc(NC(=O)c4nn(C)c(=O)n(C)c4=O)c3C)c2Cl)cc2c1[C@@H](N[C@@H]1CCOC[C@H]1O)CC2 (single isomer, unassigned) [Compound A-95]	≥ 8.00
COc1nc(-c2cccc(-c3cccc(NC(=O)c4cn(C)c(=O)n(C)c4=O)c3C)c2Cl)cc2c1[C@@H](N[C@@H]1CCOC[C@@H]1O)CC2 (single isomer, unassigned) [Compound A-40]	≥ 8.00
COc1nc(-c2cccc(-c3cccc(NC(=O)c4cn(C)c(=O)n(C)c4=O)c3C)c2C)cc2c1[C@@H](N[C@@H]1CCOC[C@@H]1O)CC2 (single isomer, unassigned) [Compound A-41]	≥ 8.00
COc1nc(-c2cccc(-c3cccc(NC(=O)c4cn(C)c(=O)n(C)c4=O)c3Cl)c2Cl)cc2c1[C@@H](N1CC(OC)C1)CC2 (single isomer, unassigned) [Compound A-24]	≥ 8.00
CCOC(=O)N(C[C@@H]1CCC(=O)N1)[C@H]1CCc2cc(-c3cccc(-c4cccc(NC(=O)c5cn(C)c(=O)n(C)c5=O)c4C)c3Cl)nc(OC)c21 [Compound E-1]	≥ 8.00
COc1nc(-c2cccc(-c3cccc(NC(=O)c4cn(C)c(=O)n(C)c4=O)c3Cl)c2Cl)cc2c1[C@@H](N1CC(O)C1)CC2 (single isomer, unassigned) [Compound A-26]	≥ 8.00
COc1nc(-c2cccc(-c3cccc(NC(=O)c4cn(C)c(=O)n(C)c4=O)c3F)c2Cl)cc2c1[C@H](N[C@@H]1CCOC[C@@H]1O)CC2 (single isomer, unassigned) [Compound A-36]	≥ 8.00

The next lines start with the values.

pIC50	Compound
≥ 8.00	COc1nc(-c2cccc(-c3cccc(NC(=O)c4cn(C)c(=O)n(C)c4=O)c3F)c2C)cc2c1[C@H](NC[C@@H]1CCC(=O)N1)CC2 [Compound A-14]
≥ 8.00	COc1nc(-c2ccc(F)c(-c3cccc(NC(=O)c4cn(C)c(=O)n(C)c4=O)c3C)c2F)cc2c1[C@@H](NC[C@@H]1CCC(=O)N1)CC2 [Compound A-67]
≥ 8.00	COc1nc(-c2cccc(-c3cccc(NC(=O)c4cn(C)c(=O)n(C)c4=O)c3OC)c2Cl)cc2c1[C@@H](NC[C@@H]1CCC(=O)N1)CC2 [Compound A-53]
≥ 8.00	COc1nc(-c2cccc(-c3cccc(NC(=O)c4cn(C)c(=O)n(C)c4=O)c3Cl)c2C)cc2c1[C@H](NC[C@@H]1CCC(=O)N1)CC2 [Compound A-12]
≥ 8.00	COc1nc(-c2cccc(-c3cccc(NC(=O)c4cn(C)c(=O)n(C)c4=O)c3C)c2F)cc2c1[C@H](NC[C@@H]1CCC(=O)N1)CC2 [Compound A-16]
≥ 8.00	COc1nc(-c2cccc(-c3cccc(NC(=O)c4cn(C)c(=O)n(C)c4=O)c3F)c2Cl)cc2c1[C@H](NC[C@@H]1CCC(=O)N1)CC2 [Compound A-11]
≥ 8.00	COc1nc(-c2cccc(-c3cccc(NC(=O)c4cn(C)c(=O)n(C)c4=O)c3C)c2Cl)cc2c1[C@H](NC[C@@H]1CCC(=O)N1)CC2 [Compound A-10]
≥ 8.00	COc1nc(-c2cccc(-c3cccc(NC(=O)c4cn(C)c(=O)n(C)c4=O)c3C)c2C)cc2c1[C@H](NC[C@@H]1CCC(=O)N1)CC2 [Compound A-13]
≥ 8.00	COc1nc(-c2cccc(-c3cccc(NC(=O)c4cn(C)c(=O)n(C)c4=O)c3Cl)c2F)cc2c1[C@H](N[C@@H]1CCOC[C@@H]1O)CC2 (single isomer, unassigned) [Compound A-32]
≥ 8.00	COc1nc(-c2cccc(-c3cccc(NC(=O)c4cn(C)c(=O)n(C)c4=O)c3C)c2C)cc2c1[C@H](N[C@@H]1CCOC[C@@H]1O)CC2 (single isomer, unassigned) [Compound A-34]
≥ 8.00	COc1nc(-c2cccc(-c3cccc(NC(=O)c4cn(C)c(=O)n(C)c4=O)c3Cl)c2F)cc2c1[C@H](NC[C@@H]1CCC(=O)N1)CC2 [Compound A-15]
≥ 8.00	COc1nc(-c2cccc(-c3cccc(NC(=O)c4cn(C)c(=O)n(C)c4=O)c3C)c2F)cc2c1[C@H](N[C@@H]1CCOC[C@@H]1O)CC2 (single isomer, unassigned) [Compound A-35]
≥ 8.00	COc1nc(-c2cccc(-c3cccc(NC(=O)c4cn(C)c(=O)n(C)c4=O)c3F)c2C)cc2c1[C@H](N[C@@H]1CCOC[C@@H]1O)CC2 (single isomer, unassigned) [Compound A-37]
≥ 8.00	COc1nc(-c2cccc(-c3cccc(NC(=O)c4cn(C)c(=O)n(C)c4=O)c3F)c2F)cc2c1[C@H](N[C@@H]1CCOC[C@@H]1O)CC2 (single isomer, unassigned) [Compound A-38]

Tested on: PD-1/PD-L1 interaction
Test: PD-1/PD-L1 NFAT Reporter Assay (co-culture of Jurkat T cells overexpressing PD-1 and PD-L1 expressing CHO cells)
Type: cell-based
Conditions: Homo sapiens, Jurkat, 6 h, co-culture 6 hrs at 37° C., NFAT-mediated luciferase activity
Procedure: Blocking the PD-1/PD-L1 interaction will release the inhibitory signal and results in TCR signaling and NFAT-mediated luciferase activity.
CHO cells expressing surface-bound anti-CD3 antibodies and PD-L1 were first seeded overnight and treated with the compounds. Jurkat cells overexpressing PD-1 and a luciferase construct under NFAT promoter were then immediately seeded on the monolayer of CHO cells. The co-culture was then incubated for 6 hrs at 37° C. Luciferase activity was assessed by adding the ONE-Glo reagent and measuring luminescence with a plate reader. EC50 values were determined from the fit of the dose-response curves.

Compound	pEC50
COc1nc(-c2cccc(-c3cccc(NC(=O)c4ccnn(C)c4=O)c3Cl)c2Cl)cc2c1[C@@H](NC[C@@H]1CCC(=O)N1)CO2 [Compound A-44]	7.00 to 8.00
COc1nc(-c2cccc(-c3cccc(NC(=O)c4cn(C)c(=O)n(C)c4=O)c3C)c2C)cc2c1C(N1C[C@@H](O)[C@@H]1C)CC2 (stereo partly drawn) [Compound D-19]	6.00 to 7.00
COc1nc(-c2cccc(-c3cccc(NC(=O)c4nn(C)c(=O)n(C)c4=O)c3C)c2Cl)cc2c1[C@@H](N[C@@H]1CCOC[C@H]1O)CC2 (single isomer, unassigned) [Compound A-95]	6.00 to 7.00
COc1nc(-c2cccc(-c3cccc(NC(=O)c4cn(C)c(=O)n(C)c4=O)c3C)c2Cl)cc2c1[C@@H](N[C@@H]1CCOC[C@@H]1O)CC2 (single isomer, unassigned) [Compound A-40]	≥ 8.00
COc1nc(-c2cccc(-c3cccc(NC(=O)c4cn(C)c(=O)n(C)c4=O)c3C)c2C)cc2c1[C@@H](N[C@@H]1CCOC[C@@H]1O)CC2 (single isomer, unassigned) [Compound A-41]	≥ 8.00
COc1nc(-c2cccc(-c3cccc(NC(=O)c4nn(C)c(=O)n(C)c4=O)c3C)c2Cl)cc2c1[C@@H](N[C@@H]1CCOC[C@@H]1O)CC2 (single isomer, unassigned) [Compound A-77]	≥ 8.00
COc1nc(-c2cccc(-c3cccc(NC(=O)c4cn(C)c(=O)n(C)c4=O)c3Cl)c2C#N)cc2c1[C@@H](N[C@@H]1CCOC[C@@H]1O)CC2 (single isomer, unassigned) [Compound A-73]	7.00 to 8.00
COc1nc(-c2ccc(F)c(-c3cccc(NC(=O)c4cn(C)c(=O)n(C)c4=O)c3C)c2F)cc2c1[C@H](N1CC(O)C1)CC2 [Compound A-81]	7.00 to 8.00
COc1cc(-c2cccc(-c3cccc(NC(=O)c4cn(C)c(=O)n(C)c4=O)c3Cl)c2Cl)cc2c1CC(NC[C@@H]1CCC(=O)N1)C2 (stereo partly shown) [Compound A-48]	6.00 to 7.00
COc1nc(-c2cccc(-c3cccc(NC(=O)c4nn(C)c(=O)n(C)c4=O)c3Cl)c2Cl)cc2c1[C@H](N1CC3(CN(C(C)=O)C3)C1)CC2 (single isomer, unassigned) [Compound A-71]	≥ 8.00
COc1nc(-c2cccc(-c3cccc(NC(=O)c4cn(C)c(=O)n(C)c4=O)c3C)c2Cl)cc2c1[C@@H](N1CC3(CCC(=O)N3)C1)CC2 (single isomer, unassigned) [Compound A-139]	≥ 8.00
COc1nc(-c2cccc(-c3cccc(NC(=O)c4cn(C)c(=O)n(C)c4=O)c3Cl)c2Cl)cc2c1C(N1CC3(CNC(=O)C3)C1)CC2 [Compound D-14]	≥ 8.00
COc1nc(-c2cccc(-c3cccc(NC(=O)c4cn(C)c(=O)n(C)c4=O)c3Cl)c2Cl)cc2c1C(N[C@H]1CCOC[C@@H]1O)CC2 (stereo partly drawn) [Compound D-8a]	7.00 to 8.00
COc1nc(-c2cccc(-c3cccc(NC(=O)c4nn(C)c(=O)n(C)c4=O)c3Cl)c2Cl)cc2c1[C@@H](N[C@@H]1CCOC[C@@H]1O)CC2 (single isomer, unassigned) [Compound A-76]	≥ 8.00

Now from value to compound:

pEC50	Compound
7.00 to 8.00	COc1nc(-c2cccc(-c3cccc(NC(=O)c4cn(C)c(=O)n(C)c4=O)c3C)c2Cl)cc2c1C(NCC(=O)O)CC2 [Compound D-12]
≥ 8.00	COc1nc(-c2ccc(F)c(-c3cccc(NC(=O)c4cn(C)c(=O)n(C)c4=O)c3C)c2F)cc2c1[C@@H](NC[C@@H]1CCC(=O)N1)CC2 [Compound A-67]
6.00 to 7.00	COc1nc(-c2cccc(-c3cccc(NC(=O)c4cn(C)c(=O)n(C)c4=O)c3OC)c2Cl)cc2c1[C@@H](NC[C@@H]1CCC(=O)N1)CC2 [Compound A-53]
7.00 to 8.00	COc1nc(-c2cccc(-c3cccc(NC(=O)c4cn(C)c(=O)n(C)c4=O)c3C)c2Cl)cc2c1C(NCC(=O)N1CCCC1)CC2 [Compound D-13]
≥ 8.00	COc1nc(-c2cccc(-c3cccc(NC(=O)c4cn(C)c(=O)n(C)c4=O)c3C)c2Cl)cc2c1[C@@H](N(C)C[C@@H]1CCC(=O)N1)CC2 [Compound I-1]
7.00 to 8.00	COc1nc(-c2cccc(-c3cccc(NC(=O)c4cn(C)c(=O)n(C)c4=O)c3Cl)c2C#N)cc2c1[C@@H](NC[C@@H]1CCC(=O)N1)CC2 [Compound A-50]
5.00 to 6.00	COc1nc(-c2cccc(-c3cccc(NC(=O)c4cn(C)c(=O)n(C)c4=O)c3C)c2Cl)cc2c1[C@H](NC[C@@H]1CCC(=O)N1)C(C)(C)C2 (single isomer, unassigned) [Compound A-124]
≥ 8.00	COc1nc(-c2cccc(-c3cccc(NC(=O)c4cn(C)c(=O)n(C)c4=O)c3C)c2Cl)cc2c1[C@H](NC[C@@H]1CNC(=O)C1)CC2 (single isomer, unassigned) [Compound A-138]
< 5.30	COc1nc(-c2cccc(-c3cccc(NC(=O)c4cn(C)c(=O)n(C)c4=O)c3C)c2Cl)cc2c1[C@@H](NC[C@@H]1CCC(=O)N1)C(C)(C)C2 (single isomer, unassigned) [Compound A-123]
7.00 to 8.00	COc1nc(-c2cccc(-c3cccc(NC(=O)c4cn(C)c(=O)n(C)c4=O)c3F)c2F)cc2c1[C@@H](NC[C@@H]1CCC(=O)N1)CC2 [Compound A-9]

Same assay, conditions: co-culture 6 hrs at 37° C., NFAT-mediated luciferase activity

pEC50	Compound
7.00 to 8.00	COc1nc(-c2ccc(F)c(-c3cccc(NC(=O)c4cn(C)c(=O)n(C)c4=O)c3C)c2F)cc2c1[C@H](N1CC(O)C1)CC2 [Compound A-82]
